Test results: patent US12128079B2, “Enteric aerobization therapy” (LPOXY THERAPEUTICS, INC., priority 2021, dated 2024)
Entries after “also recorded” stand apart in the source; their conditions may differ. Read-outs that look alike come from different tables or passages of the source.

Key:
[1] = test system: Clostridioides difficile ATCC 43255; conditions: for clinical severity / clinical observations versus infection control group: FIGS. 7-10; for animals showing clinical signs of infection (recurrence) in the 2nd week after inoculation and treatment: days 8-14; for survival: mice followed 14 days after inoculation, treatment day 0 to day 4; for onset of action / cure rate: mouse CDI model; for cure rate: 14 days after inoculation
Text: Thirty C57BL/6 female mice (18-22 g) fitted with duodenal catheters externalized and fitted with access button ports were purchased from Charles River Laboratories and singly housed in a temperature and humidity-controlled room with a 12-hour light cycle. The mice were divided into 3 groups of 10. All procedures used in these experimental protocols were in compliance with the Animal Welfare Act, the Guide for the Care and Use of Laboratory Animals, and the Office of Laboratory Animal Welfare.
The mice were pretreated with an antibiotic cocktail in their drinking water for 8 consecutive days. This antibiotic cocktail was composed of 1% glucose, 500 mcg/mL kanamycin, 44 mcg/mL gentamicin, 1062.5 units per milliliter colistin, 269 mcg/mL metronidazole, 156 mcg/mL ciprofloxacin, 100 mcg/mL ampicillin, and 56 mcg/mL vancomycin. The antibiotic cocktail and drinking water were replaced every 2 to 3 days. Five days prior to infection the antibiotic water was removed and normal drinking water was provided to the animals. Three days prior to infection the animals received a single dose of clindamycin 10 mg per kilogram via oral administration in a volume of 10 mL per kilogram.
On study Day 0 mice were inoculated with the bacterial suspension of 5×10^5 CFU Clostridioides difficile ATCC 43255 via oral gavage. Eight hours after inoculation administration of vehicle, antibiotic control, and test article was initiated according to the following. The vehicle a.k.a. infection control group of 10 mice received 80 μL per hour 100% pure nitrogen gas via duodenal catheter. The infection control group of 10 mice received 50 mg/kg vancomycin via oral gavage once daily. […] Administration was continued from study day 0 to study day 4, a total of 5 days. The mice were followed for 14 days after inoculum recording daily weights and clinical observations. Animals that appeared severely moribund were euthanized. At the end of the study all animals were humanely euthanized.

[2] = up to the maximum bolus tested, 200 microliters every 6 hours (8 mL/kg per bolus; 32 mL/kg/day)
Procedure: In a separate experiment using the above conditions the tolerance of bolus injection of 100% oxygen gas was tested.

| SMILES | clinical severity / clinical observations versus infection control group [1] | clinical severity / clinical observations versus infection control group ([1]; listed as Enteric aerobization therapy) | animals showing clinical signs of infection (recurrence) in the 2nd week after inoculation and treatment [1] | adverse effects due to gas infusion ([1]; infusion via duodenal catheter 3.2 mL/kg/hr, 76.8 mL/kg/day) | survival [1] [%] | onset of action [1] | cure rate [1] [%] | adverse effects of bolus injection [2] | animals showing clinical signs of infection (recurrence) in the 2nd week after inoculation and treatment ([1]; listed as antibiotic control group) |
| --- | --- | --- | --- | --- | --- | --- | --- | --- | --- |
| O=O [EAT, oxygen] | fewer sick animals compared to the infection control group; also recorded: mildly ill compared to the infection control group | reduces the severity of disease, accelerates recovery | no recurrent infections | no adverse effects | 100 | slower onset of action | 100 | No adverse effects were observed | – |
| CN[C@H](CC(C)C)C(=O)N[C@H]1C(=O)N[C@@H](CC(N)=O)C(=O)N[C@H]2C(=O)N[C@H]3C(=O)N[C@H](C(=O)N[C@H](C(=O)O)c4cc(O)cc(O)c4-c4cc3ccc4O)[C@H](O)c3ccc(c(Cl)c3)Oc3cc2cc(c3O[C@@H]2O[C@H](CO)[C@@H](O)[C@H](O)[C@H]2O[C@H]2C[C@](C)(N)[C@H](O)[C@H](C)O2)Oc2ccc(cc2Cl)[C@H]1O [vancomycin, reference compound] | – | – | 70% | – | 100 | more rapid onset of action | 30 | – | Seventy |
